Assays:
[1] = biological target: T1, serotonin-2 receptor (5HT-2 receptor) (Rattus norvegicus, UniProt P14842); experiment: serotonin-2 receptor binding assay (3H-ketanserin displacement); conditions: frontal/parietal cortex membranes of male Sprague-Dawley rats
T1 construct: membrane preparations of frontal/parietal cortex from male Sprague-Dawley rats; from tissue; host or cells: frontal/parietal cortex membranes of male Sprague-Dawley rats
Experimental: The compounds described above are active e.g. in the following test system indicative of serotonin-2 receptor antagonism: The serotonin-2 receptor (also named 5-hydroxytryptamine-2 or 5HT-2 receptor) binding properties are determined in vitro by measuring the ability of said compounds to inhibit the specific binding of ^3 H-ketanserin in membrane preparations of frontal/parietal cortex from male Sprague-Dawley rats essentially as described by
Battaglia et al. in Life Sciences 33, 2011 (1983). IC50 values, representing the concentration of compound required to displace 50% of ^3 H-ketanserin, are determined by log-logit analysis of the specific binding data. Illustrative of the invention, the compound of example 1 is effective in the serotonin-2 receptor binding assay having an […] value of about 5 nM.

[2] = test system: Sidman avoidance responding; experiment: Sidman avoidance model; format: in vivo, squirrel monkey (Samiri sciureus); conditions: squirrel monkeys
Experimental: The test is carried out as follows: Adult male squirrel monkeys (Samiri sciureus, 700-1200 g) are trained to press a lever to delay by 20 sec. the delivery of a brief electrical footshock. If the animal fails to respond within a 20 sec. interval, brief (0.5 sec.) shocks (5 mA) are delivered every 20 sec. until the animal again presses the lever. The total number of avoidance responses and avoidance failures (shocks received) are recorded during the test session, which lasts 4 hours. The monkeys are tested two days per week, the first day serving as a baseline control. The test compound is administered orally in a cornstarch vehicle 10 min. prior to the start of the test session. […] An approximate dose ratio of three between avoidance blockade and induction of dyskinesias is found for the compound of example 1.

T1 sequence (P14842 whole entry): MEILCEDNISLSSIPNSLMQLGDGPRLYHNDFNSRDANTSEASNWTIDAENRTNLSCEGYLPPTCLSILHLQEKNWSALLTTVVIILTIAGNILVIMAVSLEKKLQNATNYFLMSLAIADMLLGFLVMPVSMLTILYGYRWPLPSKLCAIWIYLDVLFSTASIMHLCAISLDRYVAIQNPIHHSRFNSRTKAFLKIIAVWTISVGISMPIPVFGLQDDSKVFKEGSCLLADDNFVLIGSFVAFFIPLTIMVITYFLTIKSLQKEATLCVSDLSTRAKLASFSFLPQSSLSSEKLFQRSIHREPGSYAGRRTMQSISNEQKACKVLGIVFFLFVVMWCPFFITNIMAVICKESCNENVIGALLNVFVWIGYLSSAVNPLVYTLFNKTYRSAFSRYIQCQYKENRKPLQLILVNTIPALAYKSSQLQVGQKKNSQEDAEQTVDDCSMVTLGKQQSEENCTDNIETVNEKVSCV

SMILES: O=C(c1ccc(F)cc1)C1CCN(CC2CSc3ccc(F)cc3C2)CC1 (centres unmarked) [Example 1, 1-[(6-Fluoro-3,4-dihydro-2H-1-benzothiopyran-3-yl)methyl]-4-piperidinyl p-fluorophenyl ketone]
- EC50 [1]: ~5 nM
- dose ratio between avoidance blockade and induction of dyskinesias [2]: three

Reference: patent publication US5071858A, “Antipsychotic benzothiopyranylamines” (Ciba-Geigy Corporation, priority 1990, dated 1991)
